# Results: patent US11564929B2, “Combination therapy with Notch and PI3K/mTOR inhibitors for use in treating cancer” (Eli Lilly and Company, priority 2016, dated 2023)
# Test system: A2780 human ovarian carcinoma
# Assay: Human A2780 xenograft tumor growth in athymic nude mice
# Assay type: in vivo
# Description: A2780 is a human ovarian cell line (Sigma-Aldrich). The cells are grown in culture media at 37° C. in 5% CO2 with humidity in the atmosphere. Cell culture media for A2780 human ovarian carcinoma is RPMI-1640 (without phenol red) with 2.05 mM L-glutamine, 0.01 mg/ml insulin and 10% fetal bovine serum (EBS) added.
# To evaluate in viva efficacy and effect A2780 (2×10^6) cells in a 1:1 Matrigel® mix (0.2 mL volume) are implanted by subcutaneous injection in the hind leg of 6-8 weeks of age athymic nude female mice (Harlan Laboratories). A total of 7 to 10 mice are used for each group. Just before implantation, animals are irradiated ([…]). Mice are fed ad libitum on normal chow. Treatment is initiated with oral administration (gavage) of Compound A or vehicle (1% sodium carboxymethylcellulose (Na-CMC) in 0.25% Tween®-80) or Compound B in 1% hydroxyethyl cellulose (HEC)/0.25% Tween® 80/0.05% Antifoam or their vehicle in 0.2 mL volume when tumor size reached to 150±50 mm^3, in this case after the tumor measurements were taken on study day 9. Compound A was administered at 4 or 8 mg/kg on a Monday, Wednesday and Friday schedule for 4 weeks and Compound B was administered at 15 or 30 mg/kg daily for 28 days. Tumor growth and body weight are monitored over time to evaluate efficacy and signs of toxicity. Bidimensional measurements of tumors are performed twice a week and tumor volumes are calculated based on the following formula: (Tumor Volume)=[(L)×(W2)×(II/6)] where L is mid-axis length and W is mid-axis width. Tumor volume data are transformed to a […] to equalize variance across time and treatment groups. The log volume data are analyzed with a two-way repeated measures analysis of variance by time and treatment using the MIXED™ procedure in SAS™ software (version 8.2). The correlation model for the repeated measures is spatial power. Test Groups are: • 01: Control: 1% HEC/0.25% Tween 80/0.05% Antifoam; 1% CMC/0.25% Tween 80/0.05% Antifoam; • 02: Compound A 8 mg/kg; • 03: Compound B 30 mg/kg; • 04: rapamycin 4 mg/kg; • 05: Compound A 8 mg/kg and Compound B 30 mg/kg; • 06: Compound A 4 mg/kg and Compound B 30 mg/kg; • 07: Compound B 15 mg/kg and Compound A 8 mg/kg; • 08: Compound B 15 mg/kg and Compound A 4 mg/kg; • 09: Compound A 8 mg/kg and rapamycin 4 mg/kg.
# Using the repeated measures analysis previously described, a contrast statement is used to test for an interaction effect on study day 36, using the two specific treatments that were combined.
smiles,measurement,setting,value
"C[C@H](NC(=O)CCC(F)(F)F)C(=O)N[C@@H]1C(=O)N(CCO)c2ncccc2-c2ccccc21 [Compound A, 4,4,4-trifluoro-N-[(1S)-2-[[(7S)-5-(2-hydroxyethyl)-6-oxo-7H-pyrido[2,3-d][3]benzazepin-7-yl]amino]-1-methyl-2-oxo-ethyl]butanamide]","Tumor volume, Geometric Mean","Group 02: Compound A 8 mg/kg oral Mon/Wed/Fri, study day 7 (before first dose)",121.62 mm^3
same,"Tumor volume, Geometric Mean","Group 02: Compound A 8 mg/kg oral Mon/Wed/Fri, study day 9 (before first dose)",109.98 mm^3
same,"Tumor volume, Geometric Mean","Group 02: Compound A 8 mg/kg oral Mon/Wed/Fri, study day 12",131.53 mm^3
same,"Tumor volume, Geometric Mean","Group 02: Compound A 8 mg/kg oral Mon/Wed/Fri, study day 15",194.78 mm^3
same,"Tumor volume, Geometric Mean","Group 02: Compound A 8 mg/kg oral Mon/Wed/Fri, study day 19",408.55 mm^3
same,"Tumor volume, Geometric Mean","Group 02: Compound A 8 mg/kg oral Mon/Wed/Fri, study day 22",639.48 mm^3
same,"Tumor volume, Geometric Mean","Group 02: Compound A 8 mg/kg oral Mon/Wed/Fri, study day 26",1140.46 mm^3
same,"Tumor volume, Geometric Mean","Group 02: Compound A 8 mg/kg oral Mon/Wed/Fri, study day 29",1384.21 mm^3
same,"Tumor volume, Geometric Mean","Group 02: Compound A 8 mg/kg oral Mon/Wed/Fri, study day 33",1631.82 mm^3
same,"Tumor volume, Geometric Mean","Group 02: Compound A 8 mg/kg oral Mon/Wed/Fri, study day 36",1616.05 mm^3
"CO[C@@H](C)Cn1c(=O)n(C)c2cnc3ccc(-c4cncc(C(C)(C)O)c4)cc3c21 [Compound B, 8-[5-(1-hydroxy-1-methylethyl)pyridin-3-yl]-1-[(2S)-2-methoxypropyl]-3-methyl-1,3-dihydro-2H-imidazo[4,5-c]quinolin-2-one]","Tumor volume, Geometric Mean","Group 03: Compound B 30 mg/kg oral daily, study day 7 (before first dose)",149.36 mm^3
same,"Tumor volume, Geometric Mean","Group 03: Compound B 30 mg/kg oral daily, study day 9 (before first dose)",118.70 mm^3
same,"Tumor volume, Geometric Mean","Group 03: Compound B 30 mg/kg oral daily, study day 12",138.06 mm^3
same,"Tumor volume, Geometric Mean","Group 03: Compound B 30 mg/kg oral daily, study day 15",201.95 mm^3
same,"Tumor volume, Geometric Mean","Group 03: Compound B 30 mg/kg oral daily, study day 19",326.33 mm^3
same,"Tumor volume, Geometric Mean","Group 03: Compound B 30 mg/kg oral daily, study day 22",488.21 mm^3
same,"Tumor volume, Geometric Mean","Group 03: Compound B 30 mg/kg oral daily, study day 26",776.88 mm^3
same,"Tumor volume, Geometric Mean","Group 03: Compound B 30 mg/kg oral daily, study day 29",1135.14 mm^3
same,"Tumor volume, Geometric Mean","Group 03: Compound B 30 mg/kg oral daily, study day 33",1527.41 mm^3
same,"Tumor volume, Geometric Mean","Group 03: Compound B 30 mg/kg oral daily, study day 36",1664.20 mm^3
"CO[C@H]1C[C@@H]2CC[C@@H](C)[C@@](O)(O2)C(=O)C(=O)N2CCCC[C@H]2C(=O)O[C@H]([C@H](C)C[C@@H]2CC[C@@H](O)[C@H](OC)C2)CC(=O)[C@H](C)/C=C(\C)[C@@H](O)[C@@H](OC)C(=O)[C@H](C)C[C@H](C)/C=C/C=C/C=C/1C [rapamycin, reference compound]","Tumor volume, Geometric Mean","Group 04: rapamycin 4 mg/kg, study day 7 (before first dose)",130.45 mm^3
same,"Tumor volume, Geometric Mean","Group 04: rapamycin 4 mg/kg, study day 9 (before first dose)",100.08 mm^3
same,"Tumor volume, Geometric Mean","Group 04: rapamycin 4 mg/kg, study day 12",130.81 mm^3
same,"Tumor volume, Geometric Mean","Group 04: rapamycin 4 mg/kg, study day 15",215.88 mm^3
same,"Tumor volume, Geometric Mean","Group 04: rapamycin 4 mg/kg, study day 19",428.88 mm^3
same,"Tumor volume, Geometric Mean","Group 04: rapamycin 4 mg/kg, study day 22",786.46 mm^3
same,"Tumor volume, Geometric Mean","Group 04: rapamycin 4 mg/kg, study day 26",1291.64 mm^3
same,"Tumor volume, Geometric Mean","Group 04: rapamycin 4 mg/kg, study day 29",1664.57 mm^3
same,"Tumor volume, Geometric Mean","Group 04: rapamycin 4 mg/kg, study day 33",2136.31 mm^3
same,"Tumor volume, Geometric Mean","Group 04: rapamycin 4 mg/kg, study day 36",2461.81 mm^3
